Source: ChEMBL document CHEMBL5465560, “Selectivity Literature for EUbOPEN Chemogenomic Library” (2024)

Key:
[1] = target: RAC-gamma serine/threonine-protein kinase (Homo sapiens, UniProt Q9Y243); experiment: Selectivity interaction (KinomeScan (DiscoverX)) EUB0000595a AKT3; conditions: at 10 µM
[2] = target: Mitogen-activated protein kinase kinase kinase 9 (Homo sapiens) (UniProt P80192); experiment: Selectivity interaction (KinomeScan (DiscoverX)) EUB0000595a MAP3K9; conditions: at 10 µM
[3] = target: Dual specificity protein kinase CLK3 (Homo sapiens, UniProt P49761); experiment: Selectivity interaction (Kinase panel (DSF assay)) EUB0001559a CLK3
Dual specificity protein kinase CLK3, sequence (P49761 whole entry, looked up): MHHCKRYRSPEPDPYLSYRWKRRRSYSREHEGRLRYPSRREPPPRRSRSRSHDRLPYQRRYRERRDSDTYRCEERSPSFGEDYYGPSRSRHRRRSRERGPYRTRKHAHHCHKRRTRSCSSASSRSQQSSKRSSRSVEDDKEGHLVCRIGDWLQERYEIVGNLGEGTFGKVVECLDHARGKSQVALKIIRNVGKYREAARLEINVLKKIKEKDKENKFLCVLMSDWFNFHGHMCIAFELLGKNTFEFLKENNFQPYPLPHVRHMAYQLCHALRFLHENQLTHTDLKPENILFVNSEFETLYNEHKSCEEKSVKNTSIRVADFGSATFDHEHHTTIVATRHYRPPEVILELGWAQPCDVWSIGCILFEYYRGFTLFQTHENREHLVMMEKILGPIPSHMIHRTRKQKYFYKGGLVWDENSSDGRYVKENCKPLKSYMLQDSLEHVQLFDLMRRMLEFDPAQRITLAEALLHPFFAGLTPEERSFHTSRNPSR

[4] = target: T1, Tyrosine-protein kinase TXK (Homo sapiens) (UniProt P42681); experiment: Selectivity interaction (KinomeScan (DiscoverX)) EUB0000045b TXK
T1 sequence (whole entry): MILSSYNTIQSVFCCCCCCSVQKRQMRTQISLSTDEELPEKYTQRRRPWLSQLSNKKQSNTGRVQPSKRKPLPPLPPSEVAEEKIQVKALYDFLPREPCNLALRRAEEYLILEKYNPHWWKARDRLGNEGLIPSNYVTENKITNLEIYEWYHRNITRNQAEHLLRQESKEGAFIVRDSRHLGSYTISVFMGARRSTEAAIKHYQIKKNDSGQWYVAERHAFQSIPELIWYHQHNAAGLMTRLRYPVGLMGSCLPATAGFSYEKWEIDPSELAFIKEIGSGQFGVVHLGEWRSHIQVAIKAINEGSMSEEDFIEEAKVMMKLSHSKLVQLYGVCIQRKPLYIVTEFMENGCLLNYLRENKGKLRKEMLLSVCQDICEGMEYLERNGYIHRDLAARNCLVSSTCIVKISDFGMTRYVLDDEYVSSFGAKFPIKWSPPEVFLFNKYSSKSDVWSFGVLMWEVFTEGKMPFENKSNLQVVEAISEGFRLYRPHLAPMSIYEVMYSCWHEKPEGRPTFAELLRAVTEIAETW

[5] = target: CDK3/Cyclin E (Homo sapiens) (UniProt P24864+Q00526); experiment: Selectivity interaction (LanthaScreen Eu Kinase Binding Assay) EUB0001632a CDK3; assay type: protein-complex assay; conditions: at 10 µM
CDK3/Cyclin E (Homo sapiens), sequence (P24864 whole entry, looked up): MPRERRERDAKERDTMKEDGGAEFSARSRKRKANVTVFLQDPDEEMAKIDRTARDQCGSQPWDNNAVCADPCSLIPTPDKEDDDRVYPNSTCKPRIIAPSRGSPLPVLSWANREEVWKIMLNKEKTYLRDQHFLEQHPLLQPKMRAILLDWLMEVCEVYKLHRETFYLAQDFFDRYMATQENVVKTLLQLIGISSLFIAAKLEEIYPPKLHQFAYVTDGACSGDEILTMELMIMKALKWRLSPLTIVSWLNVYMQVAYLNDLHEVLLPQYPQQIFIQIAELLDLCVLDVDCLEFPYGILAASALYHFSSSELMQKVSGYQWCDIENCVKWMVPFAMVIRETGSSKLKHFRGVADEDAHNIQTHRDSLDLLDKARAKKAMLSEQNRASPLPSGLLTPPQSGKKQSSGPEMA
CDK3/Cyclin E (Homo sapiens), sequence (Q00526 whole entry, looked up): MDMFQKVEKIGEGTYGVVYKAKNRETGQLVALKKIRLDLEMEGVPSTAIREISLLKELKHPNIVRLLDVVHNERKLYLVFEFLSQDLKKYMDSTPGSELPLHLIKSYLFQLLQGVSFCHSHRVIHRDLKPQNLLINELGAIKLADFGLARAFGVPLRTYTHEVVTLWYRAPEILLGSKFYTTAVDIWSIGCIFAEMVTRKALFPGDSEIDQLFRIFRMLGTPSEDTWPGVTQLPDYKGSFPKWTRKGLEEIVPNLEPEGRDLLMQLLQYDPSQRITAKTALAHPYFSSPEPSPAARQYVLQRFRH

[6] = target: Bone morphogenetic protein receptor type-1B (Homo sapiens, UniProt O00238); experiment: Selectivity interaction (KinomeScan (DiscoverX)) EUB0000666a BMPR1B; conditions: at 10 µM
[7] = target: Tyrosine-protein kinase Fes/Fps (Homo sapiens) (UniProt P07332); conditions: at 10 µM
Tyrosine-protein kinase Fes/Fps (Homo sapiens), sequence (P07332 whole entry): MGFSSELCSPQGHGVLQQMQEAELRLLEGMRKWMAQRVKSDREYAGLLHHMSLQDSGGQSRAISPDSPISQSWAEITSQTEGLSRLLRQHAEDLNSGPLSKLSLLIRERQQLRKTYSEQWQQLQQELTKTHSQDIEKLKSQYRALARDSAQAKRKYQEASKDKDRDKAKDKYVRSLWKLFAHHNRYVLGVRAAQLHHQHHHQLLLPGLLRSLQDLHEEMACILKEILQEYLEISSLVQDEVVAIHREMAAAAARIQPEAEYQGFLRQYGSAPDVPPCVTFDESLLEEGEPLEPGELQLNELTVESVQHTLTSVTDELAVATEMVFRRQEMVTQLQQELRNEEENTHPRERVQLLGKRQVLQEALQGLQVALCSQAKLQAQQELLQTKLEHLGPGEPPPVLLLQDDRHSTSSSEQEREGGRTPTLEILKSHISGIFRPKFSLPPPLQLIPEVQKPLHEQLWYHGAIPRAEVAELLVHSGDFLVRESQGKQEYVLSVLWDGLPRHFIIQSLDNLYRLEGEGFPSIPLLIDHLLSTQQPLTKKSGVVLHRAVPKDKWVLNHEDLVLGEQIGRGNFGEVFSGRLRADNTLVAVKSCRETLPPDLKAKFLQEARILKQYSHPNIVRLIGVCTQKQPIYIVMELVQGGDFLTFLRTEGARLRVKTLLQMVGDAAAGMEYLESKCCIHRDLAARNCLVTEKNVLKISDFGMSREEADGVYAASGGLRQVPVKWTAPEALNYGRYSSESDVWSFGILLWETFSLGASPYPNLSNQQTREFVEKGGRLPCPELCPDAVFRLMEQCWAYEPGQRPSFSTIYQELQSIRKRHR

[8] = target: Vascular endothelial growth factor receptor 3 (Homo sapiens, UniProt P35916); experiment: Selectivity interaction (KinomeScan (DiscoverX)) EUB0001049a FLT4; conditions: at 1 µM
[9] = target: T2, Serine/threonine-protein kinase TAO3 (Homo sapiens) (UniProt Q9H2K8); experiment: Selectivity interaction (Upstate Kinase Profiler service (Millipore)) EUB0000056c TAOK3; conditions: at 1 µM
T2 sequence (whole entry): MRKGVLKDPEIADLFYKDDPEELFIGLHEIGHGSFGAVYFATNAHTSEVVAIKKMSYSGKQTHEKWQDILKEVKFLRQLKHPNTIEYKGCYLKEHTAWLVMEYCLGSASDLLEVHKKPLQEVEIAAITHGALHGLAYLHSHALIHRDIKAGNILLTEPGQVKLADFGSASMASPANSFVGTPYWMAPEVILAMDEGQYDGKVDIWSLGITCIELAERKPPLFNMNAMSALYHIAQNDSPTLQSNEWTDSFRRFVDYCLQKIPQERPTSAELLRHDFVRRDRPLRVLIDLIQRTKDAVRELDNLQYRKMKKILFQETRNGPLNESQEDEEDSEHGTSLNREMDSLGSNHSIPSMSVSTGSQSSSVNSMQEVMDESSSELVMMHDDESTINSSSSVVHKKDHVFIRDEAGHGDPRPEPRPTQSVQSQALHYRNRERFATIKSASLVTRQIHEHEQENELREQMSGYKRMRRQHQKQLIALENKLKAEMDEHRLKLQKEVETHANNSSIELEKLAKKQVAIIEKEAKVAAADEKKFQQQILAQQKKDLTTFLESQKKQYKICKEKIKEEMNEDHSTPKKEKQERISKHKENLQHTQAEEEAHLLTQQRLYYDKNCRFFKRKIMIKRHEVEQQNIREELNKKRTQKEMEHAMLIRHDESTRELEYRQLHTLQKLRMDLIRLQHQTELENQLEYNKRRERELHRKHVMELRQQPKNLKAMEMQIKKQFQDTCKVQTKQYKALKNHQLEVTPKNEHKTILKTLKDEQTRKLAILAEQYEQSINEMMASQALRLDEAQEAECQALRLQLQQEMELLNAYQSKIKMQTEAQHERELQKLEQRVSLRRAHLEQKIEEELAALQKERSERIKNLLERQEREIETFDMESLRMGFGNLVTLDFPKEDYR

[10] = target: Tyrosine-protein kinase receptor Tie-1 (Homo sapiens) (UniProt P35590); experiment: Selectivity interaction (KinomeScan (DiscoverX)) EUB0001619a TIE1; conditions: at 1 µM
[11] = tested on: Hepatocyte growth factor receptor (Homo sapiens), P08581 [M1250T]; experiment: (§1) Selectivity interaction (SelectScreen profiling (Invitrogen)) EUB0000607a MET; conditions: at 2 µM
[12] = target: Hepatocyte growth factor receptor (Homo sapiens, UniProt P08581); experiment: as §1; conditions: at 2 µM
Hepatocyte growth factor receptor, sequence (P08581 whole entry): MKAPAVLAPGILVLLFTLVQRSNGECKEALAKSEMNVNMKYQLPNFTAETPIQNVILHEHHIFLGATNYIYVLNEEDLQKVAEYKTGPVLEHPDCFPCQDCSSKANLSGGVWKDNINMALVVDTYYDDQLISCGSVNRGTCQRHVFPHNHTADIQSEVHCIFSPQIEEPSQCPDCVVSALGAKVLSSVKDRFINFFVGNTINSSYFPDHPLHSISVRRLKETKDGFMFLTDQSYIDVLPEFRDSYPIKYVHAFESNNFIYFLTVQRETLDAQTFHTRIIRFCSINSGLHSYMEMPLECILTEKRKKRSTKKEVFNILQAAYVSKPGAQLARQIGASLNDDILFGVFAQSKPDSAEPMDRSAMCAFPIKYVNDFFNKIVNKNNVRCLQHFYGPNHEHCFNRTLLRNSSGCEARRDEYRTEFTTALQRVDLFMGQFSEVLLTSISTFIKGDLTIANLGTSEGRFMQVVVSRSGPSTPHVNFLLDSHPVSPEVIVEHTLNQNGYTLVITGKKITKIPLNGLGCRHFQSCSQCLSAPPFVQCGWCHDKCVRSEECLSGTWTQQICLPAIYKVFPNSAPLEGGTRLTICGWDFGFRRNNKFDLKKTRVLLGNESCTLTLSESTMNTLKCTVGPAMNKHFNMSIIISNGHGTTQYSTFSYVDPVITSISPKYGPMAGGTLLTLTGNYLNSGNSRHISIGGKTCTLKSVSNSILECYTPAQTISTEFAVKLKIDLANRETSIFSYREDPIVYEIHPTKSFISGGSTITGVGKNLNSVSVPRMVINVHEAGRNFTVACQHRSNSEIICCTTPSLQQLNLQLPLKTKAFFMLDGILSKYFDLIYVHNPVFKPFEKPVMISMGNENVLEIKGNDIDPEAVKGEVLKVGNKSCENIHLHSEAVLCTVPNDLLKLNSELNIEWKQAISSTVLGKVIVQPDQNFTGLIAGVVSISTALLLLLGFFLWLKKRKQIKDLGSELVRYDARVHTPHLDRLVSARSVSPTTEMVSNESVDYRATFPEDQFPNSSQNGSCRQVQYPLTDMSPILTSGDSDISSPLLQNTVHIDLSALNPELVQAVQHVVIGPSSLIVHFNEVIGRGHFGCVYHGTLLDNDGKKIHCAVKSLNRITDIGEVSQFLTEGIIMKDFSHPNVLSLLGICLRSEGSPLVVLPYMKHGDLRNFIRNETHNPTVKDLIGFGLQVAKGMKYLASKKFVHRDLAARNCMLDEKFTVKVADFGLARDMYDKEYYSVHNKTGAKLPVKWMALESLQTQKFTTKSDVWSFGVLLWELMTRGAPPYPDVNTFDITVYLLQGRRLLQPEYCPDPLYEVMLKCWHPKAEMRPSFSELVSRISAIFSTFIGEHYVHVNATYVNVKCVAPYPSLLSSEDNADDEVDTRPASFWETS

[13] = target: Serine/threonine-protein kinase PAK 1 (Homo sapiens) (UniProt Q13153); experiment: Selectivity interaction (KinomeScan (DiscoverX)) EUB0000607a PAK1; conditions: at 10 µM
[14] = target: Ribosomal protein S6 kinase alpha-2 (Homo sapiens) (UniProt Q15349); experiment: Selectivity interaction (Kinase panel (Invitrogen)) EUB0000639a RPS6KA2; conditions: at 200 nM
Ribosomal protein S6 kinase alpha-2 (Homo sapiens), sequence (Q15349 whole entry): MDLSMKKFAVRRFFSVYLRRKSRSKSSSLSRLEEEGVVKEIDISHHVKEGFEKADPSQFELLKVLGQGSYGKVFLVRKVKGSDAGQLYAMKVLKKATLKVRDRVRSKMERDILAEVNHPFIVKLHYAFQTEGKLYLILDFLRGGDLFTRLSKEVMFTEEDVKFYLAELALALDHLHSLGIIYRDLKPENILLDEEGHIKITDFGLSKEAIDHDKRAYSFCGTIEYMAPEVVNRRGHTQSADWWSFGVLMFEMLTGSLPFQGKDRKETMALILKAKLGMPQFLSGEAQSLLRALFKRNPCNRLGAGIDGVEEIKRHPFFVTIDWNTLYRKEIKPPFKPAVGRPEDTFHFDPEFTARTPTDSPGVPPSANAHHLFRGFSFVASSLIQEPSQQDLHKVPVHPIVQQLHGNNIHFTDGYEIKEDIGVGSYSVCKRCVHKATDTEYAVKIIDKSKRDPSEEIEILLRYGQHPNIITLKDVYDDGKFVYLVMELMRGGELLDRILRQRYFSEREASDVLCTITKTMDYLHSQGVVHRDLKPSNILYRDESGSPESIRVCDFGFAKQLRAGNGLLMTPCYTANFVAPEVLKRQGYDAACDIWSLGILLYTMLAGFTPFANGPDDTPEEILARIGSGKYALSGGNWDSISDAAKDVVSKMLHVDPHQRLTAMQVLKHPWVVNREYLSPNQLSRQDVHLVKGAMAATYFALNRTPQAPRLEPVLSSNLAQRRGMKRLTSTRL

[15] = target: Cyclin-dependent kinase 8 (Homo sapiens, UniProt P49336); experiment: Selectivity interaction (KinomeScan (DiscoverX)) EUB0000092b CDK8; conditions: at 10 µM

RAC-gamma serine/threonine-protein kinase, sequence (Q9Y243 whole entry): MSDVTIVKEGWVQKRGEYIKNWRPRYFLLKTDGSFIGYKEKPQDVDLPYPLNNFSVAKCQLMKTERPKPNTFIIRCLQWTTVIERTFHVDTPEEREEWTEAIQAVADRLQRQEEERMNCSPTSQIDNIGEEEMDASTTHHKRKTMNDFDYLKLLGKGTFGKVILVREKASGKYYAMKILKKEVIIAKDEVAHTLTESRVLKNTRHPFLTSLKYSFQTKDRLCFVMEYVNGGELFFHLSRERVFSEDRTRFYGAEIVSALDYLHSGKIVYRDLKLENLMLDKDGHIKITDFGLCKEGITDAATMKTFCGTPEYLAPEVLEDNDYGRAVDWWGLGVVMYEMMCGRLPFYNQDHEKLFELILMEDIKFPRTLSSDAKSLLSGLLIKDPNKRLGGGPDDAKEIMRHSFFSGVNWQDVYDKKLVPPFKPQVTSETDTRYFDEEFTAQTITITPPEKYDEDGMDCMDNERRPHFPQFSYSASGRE

SMILES: COCC(=O)NC/C=C/c1ccc2ncnc(Nc3ccc(Oc4ccc(C)nc4)c(C)c3)c2c1 [CP-724714]
- % of control [1]: 100%
- % of control [2]: 74%

SMILES: CN(C(=O)c1cnn2cccnc12)c1cc2c(cc1N1CCOCC1)C(=O)N(C[C@@H](F)C(C)(C)O)C2
- dTM [3]: 0 K

SMILES: C=CC(=O)Nc1cc(-n2c(=O)ccc3cnc4ccc(-c5ccc(NS(C)(=O)=O)cc5)cc4c32)ccc1C
- % of control ([4]; at 1 µM): 25%
- % of control ([4]; at 10 µM): 2.6%

SMILES: Cn1cc(-n2cnc3c(NCc4nc5cc(Cl)c(Cl)cc5[nH]4)nc(N4CCOCC4)nc32)cn1
- % of inhibition [5]: -151%

SMILES: O=C(NOC[C@H](O)CO)c1ccc(F)c(F)c1Nc1ccc(I)cc1F
- % of control [6]: 100%

SMILES: Cc1cc([C@@H](C)Nc2ccccc2C(=O)O)c2nc(N3CCOCC3)cc(=O)n2c1 [AZD-6482]
- % of control [7]: 94%

SMILES: COc1cc(Nc2nc(C)cc(-c3cnn4nc(OC)ccc34)n2)cc(C(F)(F)F)c1
- % of control [8]: 89%

SMILES: Cc1ccc(-c2ccc3c(ccc4sc5c(c43)NC[C@@H](C)NC5=O)n2)cn1
- % of inhibition [9]: 19%

SMILES: N#Cc1cccc(-c2c[nH]c3ncnc(N4CCOCC4)c23)c1
- % of control [10]: 80%

SMILES: CNC(=O)Nc1ccc(-c2nc(N3CC4CCC(C3)O4)c3cnn(C4CCC5(CC4)OCCO5)c3n2)cc1
- % of inhibition [11]: 1%
- % of inhibition [12]: 2%
- % of control [13]: 100%

SMILES: CC[C@@H]1[C@H](F)C(=O)N[C@@H]1COc1nccc2cc(C(N)=O)c(OC)cc12 [ZIMLOVISERTIB]
- % of inhibition [14]: -0.472%

SMILES: CCC(=O)N1CCN(c2ccc(-n3c(=O)ccc4cnc5ccc(-c6cnc7ccccc7c6)cc5c43)cc2C(F)(F)F)CC1
- % of control [15]: 4.6%
